Legend:
Type in all cases: functional
Prunus domestica [1] = experiment: Ratio in bottled plum was determined
Rumex acetosa [2] = experiment: Ratio in boiled sorrel was determined
Rubus [3] = experiment: Ratio in botteled blackberries was determined
Rumex acetosa [4] = experiment: Ratio in microwaved sorrel was determined
Rumex acetosa [5] = experiment: Ratio in stewed sorrel was determined
Rumex acetosa [6] = experiment: Ratio in steamed sorrel was determined
Capsicum [7] = experiment: Ratio in baked paprika was determined
Anethum graveolens = experiment: Ratio in pickled dill was determined
Capsicum [8] = experiment: Ratio in pickled paprika was determined
Capsicum [9] = experiment: Ratio in raw paprika was determined
Rubus [10] = experiment: Ratio in raw blackberries was determined
Rumex acetosa [11] = experiment: Ratio in raw sorrel was determined
Prunus domestica [12] = experiment: Ratio in raw plum was determined

Row | Structure (SMILES) | Ratio (Prunus domestica [1]) | Ratio (Rumex acetosa [2]) | Ratio (Rubus [3]) | Ratio (Rumex acetosa [4]) | Ratio (Rumex acetosa [5]) | Ratio (Rumex acetosa [6]) | Ratio (Capsicum [7]) | Ratio (Anethum graveolens) | Ratio (Capsicum [8]) | Ratio (Capsicum [9]) | Ratio (Rubus [10]) | Ratio (Rumex acetosa [11]) | Ratio (Prunus domestica [12])
1 | C=C1C=CCC(C)(C)[C@H]1/C=C/C(C)=C/C=C/C(C)=C/C=C/C=C(C)/C=C/C=C(C)/C=C/C1=C(C)C[C@@H](O)CC1(C)C | 4.7% | 6.5% | 7.9% | 5% | 8% | 11.3% | 5.1% | 3% | 2.2% | – | – | – | –
2 | CC1=C[C@@H](O)CC(C)(C)[C@H]1/C=C/C(C)=C/C=C/C(C)=C/C=C/C=C(C)/C=C/C=C(C)/C=C/C1=C(C)C[C@@H](O)CC1(C)C | 7% | 9% | 17.4% | 6.4% | 8.8% | 9.2% | 3.8% | 13.8% | 12.5% | – | – | – | –
3 | CC1=C[C@H](O)CC(C)(C)[C@H]1/C=C/C(C)=C/C=C/C(C)=C/C=C/C=C(C)/C=C/C=C(C)/C=C/C1=C(C)C[C@@H](O)CC1(C)C [LUTEIN] | 29.3% | 28.6% | 37.4% | 24% | 16.4% | 12.7% | 47.5% | 28.7% | 49.2% | 53.5% | 58.6% | 36% | 34.2%
